# Measured values published in US9150585B2, “Analogs of camptothecin” (FL Therapeutics, LLC, priority 2012, dated 2015).
# Experiments:
# [1] = in presence of HSA; cited from earlier work
# [2] = target: Human serum albumin (HSA) (Homo sapiens, UniProt P02768); experiment: HSA-binding assay (equilibrium dialysis); details: isolated protein
# Protocol: Equilibrium dialysis was performed in a 24-well BD Gentest Serum Binding System (BD Biosciences, Woburn, Mass.). Human serum albumin (HSA) at 0.6 mM was prepared by dissolving in phosphate buffered saline (PBS: 4.01 mL 1 M K2HPO4+0.99 mL 1 M KH2PO4+1.37 mL 5 M NaCl+43.63 mL water). After washing and soaking the 24-well BD Gentest Serum Binding System with water, 30% ethanol, and PBS, 750 μL of HSA and 250 μL of PBS were dispensed into each donor and receiver well, respectively. 3.75 μL of 1 mM test compound or wafarin (as control) was spiked into HSA in each donor well. The duplicate incubations were performed at 37° C. for 20 hrs.
# After incubation, HSA and buffer samples collected from donor and receiver wells, together with calibration standard samples, were prepared in 96-well plates as shown in Table 5.
# The plates were then capped, vortexed, and centrifuged at 3500 rpm for 10 minutes. The supernatant was injected into LC-MS/MS. Sample analysis was performed on an LC/MS/MS system composed of Shimadzu Prominence pumps, SIL-20ACHT autosampler, and Applied Biosystems/MDS Sciex API 3200.
# [3] = Persistence in plasma (incubation with human plasma, LC-MS/MS); assay type: in vitro ADME; details: for Peak Area Ratio (Analyte/IS) Human Plasma 0 min Replicate 1 / Peak Area Ratio (Analyte/IS) Human Plasma 0 min Replicate 2 / Peak Area Ratio (Analyte/IS) Human Plasma 60 min Replicate 1 / Peak Area Ratio (Analyte/IS) Human Plasma 60 min Replicate 2 / % Remaining after 1-hr Incubation at 37° C. in Human Plasma, Average / % Remaining after 1-hr Incubation at 37° C. in Human Plasma, Replicate 1 / % Remaining after 1-hr Incubation at 37° C. in Human Plasma, Replicate 2: 10 μM
# Protocol: Test compounds and control (procaine) were incubated at a concentration of 10 μM with human plasma. The duplicate incubations, conducted in 96-well plates in a shaking water bath maintained at 37° C., were performed for 0 and 60 minutes and quenched by addition of acetonitrile.
# After quenching by acetonitrile, the plates were capped, vortexed, and centrifuged at 3000 rpm for 10 minutes. The supernatant was injected into LC-MS/MS.
# [formula] […] FL-001 and FL-003 are stable in human plasma, with a percent remaining of 127 and 89, respectively. Using the same protocol, the percent remaining of Camptothecin after 1-hr incubation in human plasma is 11%.
# [4] = cited from earlier work
# [5] = human plasma, 37° C., replicate 1
# [6] = human plasma, 37° C., replicate 2
# Sequence of Human serum albumin (HSA) (P02768 25-609): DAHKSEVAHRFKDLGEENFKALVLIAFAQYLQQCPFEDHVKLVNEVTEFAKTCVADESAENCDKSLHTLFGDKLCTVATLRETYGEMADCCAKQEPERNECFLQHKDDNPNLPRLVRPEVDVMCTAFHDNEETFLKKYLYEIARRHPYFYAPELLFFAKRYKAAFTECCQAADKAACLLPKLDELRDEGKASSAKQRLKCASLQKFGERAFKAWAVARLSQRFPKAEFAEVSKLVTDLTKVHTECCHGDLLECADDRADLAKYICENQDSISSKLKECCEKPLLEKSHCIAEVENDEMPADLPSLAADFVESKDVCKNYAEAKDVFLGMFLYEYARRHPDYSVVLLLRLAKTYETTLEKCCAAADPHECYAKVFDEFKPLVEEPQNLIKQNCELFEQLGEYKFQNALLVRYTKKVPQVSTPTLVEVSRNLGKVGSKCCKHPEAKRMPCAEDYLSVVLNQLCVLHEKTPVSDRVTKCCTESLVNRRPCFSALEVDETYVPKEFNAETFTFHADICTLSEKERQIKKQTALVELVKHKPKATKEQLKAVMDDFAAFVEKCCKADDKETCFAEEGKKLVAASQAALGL
structure (smiles),measurement,setting,value
CC[C@@]1(O)C(=O)OCc2c1cc1n(c2=O)Cc2cc3c(N)cccc3nc2-1 [9-Aminocamptothecin],equilibrium concentration of active (lactone) form in blood,[1],less than 0.5%
CCCCCCCCCCCCCCCC(=O)N[C@@H](CCC(=O)NCC(=O)O[C@]1(CC)C(=O)OCc2c1cc1n(c2=O)Cc2c-1nc1ccc(O)cc1c2CC)C(=O)O [FL-033],"fraction unbound at 20 h, 5 μM",[2],< 0.001
CCCCCCCCC(NC(=O)CCC(=O)O[C@]1(CC)C(=O)OCc2c1cc1n(c2=O)Cc2cc3c(CN(C)C)c(O)ccc3nc2-1)C(=O)O (stereo partly drawn) [FL-006],"fraction unbound at 20 h, 5 μM",[2],0.015
CC[C@@]1(O)C(=O)OCc2c1cc1n(c2=O)Cc2cc3ccccc3nc2-1 [Camptothecin],percent remaining after 1-hr incubation in human plasma,"[3]; same protocol, human plasma, 1 hr",11%
CC(=O)CC(c1ccccc1)c1c(O)c2ccccc2oc1=O (stereo not drawn) [Warfarin],protein binding in human plasma (literature values),[4],98-100%
CCCCCCCCCCCCCCCCC(NC(=O)CCCC(=O)O[C@]1(CC)C(=O)OCc2c1cc1n(c2=O)Cc2cc3c(CN(C)C)c(O)ccc3nc2-1)C(=O)O (stereo partly drawn) [FL-010],"fraction unbound at 20 h, 5 μM",[2],< 0.002
CCCCCCCCCCCCCCCCC(NC(=O)CCC(=O)O[C@]1(CC)C(=O)OCc2c1cc1n(c2=O)Cc2cc3c(CN(C)C)c(O)ccc3nc2-1)C(=O)O (stereo partly drawn) [FL-004],"fraction unbound at 20 h, 5 μM",[2],< 0.002
CCCCCCCCCCCCC(NC(=O)CCC(=O)O[C@]1(CC)C(=O)OCc2c1cc1n(c2=O)Cc2cc3c(CN(C)C)c(O)ccc3nc2-1)C(=O)O (stereo partly drawn) [FL-008],"fraction unbound at 20 h, 5 μM",[2],< 0.002
CCCCCCCCCCCCCCCCC(NC(=O)CCC(=O)O[C@]1(CC)C(=O)OCc2c1cc1n(c2=O)Cc2cc3ccccc3nc2-1)C(=O)O (stereo partly drawn) [FL-001],Peak Area Ratio (Analyte/IS) Human Plasma 0 min Replicate 1,[3]; [5],1.47
same,Peak Area Ratio (Analyte/IS) Human Plasma 0 min Replicate 2,[3]; [6],1.75
same,Peak Area Ratio (Analyte/IS) Human Plasma 60 min Replicate 1,[3]; [5],1.96
same,Peak Area Ratio (Analyte/IS) Human Plasma 60 min Replicate 2,[3]; [6],2.13
same,"% Remaining after 1-hr Incubation at 37° C. in Human Plasma, Average","[3]; human, plasma, 1 h",127%
same,"% Remaining after 1-hr Incubation at 37° C. in Human Plasma, Replicate 1","[3]; human, plasma, 1 h",122%
same,"% Remaining after 1-hr Incubation at 37° C. in Human Plasma, Replicate 2","[3]; human, plasma, 1 h",132%
same,"fraction unbound at 20 h, 5 μM",[2],< 0.001
CCCCCCCCCCCCCCCCC(NC(=O)CCC(=O)O[C@]1(CC)C(=O)OCc2c1cc1n(c2=O)Cc2c-1nc1ccc(O)cc1c2CC)C(=O)O (stereo partly drawn) [FL-003],Peak Area Ratio (Analyte/IS) Human Plasma 0 min Replicate 1,[3]; [5],3.91
same,Peak Area Ratio (Analyte/IS) Human Plasma 0 min Replicate 2,[3]; [6],4.03
same,Peak Area Ratio (Analyte/IS) Human Plasma 60 min Replicate 1,[3]; [5],3.37
same,Peak Area Ratio (Analyte/IS) Human Plasma 60 min Replicate 2,[3]; [6],3.73
same,"% Remaining after 1-hr Incubation at 37° C. in Human Plasma, Average","[3]; human plasma, 37° C., 1 hr, average of duplicates",89%
same,"% Remaining after 1-hr Incubation at 37° C. in Human Plasma, Replicate 1","[3]; human plasma, 37° C., 1 hr, replicate 1",85%
same,"% Remaining after 1-hr Incubation at 37° C. in Human Plasma, Replicate 2","[3]; human plasma, 37° C., 1 hr, replicate 2",94%
same,"fraction unbound at 20 h, 5 μM",[2],< 0.001
"CCN(CC)CCOC(=O)c1ccc(N)cc1 [Procaine, reference compound]",Peak Area Ratio (Analyte/IS) Human Plasma 0 min Replicate 1,[3]; [5],0.60
same,Peak Area Ratio (Analyte/IS) Human Plasma 0 min Replicate 2,[3]; [6],1.21
same,Peak Area Ratio (Analyte/IS) Human Plasma 60 min Replicate 1,[3]; [5],0.00
same,Peak Area Ratio (Analyte/IS) Human Plasma 60 min Replicate 2,[3]; [6],0.11
same,"% Remaining after 1-hr Incubation at 37° C. in Human Plasma, Average","[3]; human, plasma, 1 h",6%
same,"% Remaining after 1-hr Incubation at 37° C. in Human Plasma, Replicate 1","[3]; human, plasma, 1 h",0%
same,"% Remaining after 1-hr Incubation at 37° C. in Human Plasma, Replicate 2","[3]; human, plasma, 1 h",12%
CCCCCCCCCCCCCCCCC(NC(=O)C(CCCCN)NC(=O)CCC(=O)O[C@]1(CC)C(=O)OCc2c1cc1n(c2=O)Cc2cc3ccccc3nc2-1)C(=O)O (stereo partly drawn) [FL-013],"fraction unbound at 20 h, 5 μM",[2],< 0.001
CCCCCCCCCCCCCCCC(=O)N(CCC(=O)O[C@]1(CC)C(=O)OCc2c1cc1n(c2=O)Cc2cc3ccccc3nc2-1)CC(=O)O [FL-015],"fraction unbound at 20 h, 5 μM",[2],< 0.001
